Reference: US10961202B2, “Bis-benzimidazole compounds and methods of using the same” (THE SCRIPPS RESEARCH INSTITUTE, priority 2017, dated 2021)

Test system: r(CUG)12-MBNL1 complex
Assay: Inhibition of the r(CUG)12-MBNL1 complex measured by TR-FRET
Format: biochemical
Conditions: 80 nM RNA, 60 nM MBNL1-His6

| Compound | IC50 (Table M) [µM] | IC50 (Table L) [µM] |
| --- | --- | --- |
| CN(C)CCNC(=O)c1ccc(-c2nc3ccc(-c4ccc5nc(-c6ccc(C(=O)N[C@H]7CCN(C(=O)c8ccc(-c9nc%10ccc(-c%11ccc%12nc(-c%13ccc(C(=O)NCCN(C)C)cc%13)[nH]c%12c%11)cc%10[nH]9)cc8)C7)cc6)[nH]c5c4)cc3[nH]2)cc1 [Compound 455] | 3.8 |  |
| CN(C)CCNC(=O)c1ccc2nc(-c3ccc(-c4nc5ccc(C#N)cc5[nH]4)cc3)[nH]c2c1 [Compound 15] |  | 45 |
| C#CCCNC(=O)CCCOc1ccc2[nH]c(-c3ccc(-c4nc5cc(OCCCN(C)C)ccc5[nH]4)cc3)nc2c1 [Compound 321] | 22.4 |  |
| CN(C)CCNC(=O)c1ccc(-c2nc3ccc(-c4ccc5nc(-c6ccc(C(=O)NC7CCC(CC8CCC(NC(=O)c9ccc(-c%10nc%11ccc(-c%12ccc%13nc(-c%14ccc(C(=O)NCCN(C)C)cc%14)[nH]c%13c%12)cc%11[nH]%10)cc9)CC8)CC7)cc6)[nH]c5c4)cc3[nH]2)cc1 (centres unmarked) [Compound 428] | 2.9 |  |
| CN(C)CCNC(=O)c1ccc(-c2nc3cc(-c4ccc5[nH]c(-c6ccc(C(=O)NCCCNC(=O)c7ccc(-c8nc9cc(-c%10ccc%11[nH]c(-c%12ccc(C(=O)NCCN(C)C)cc%12)nc%11c%10)ccc9[nH]8)cc7)cc6)nc5c4)ccc3[nH]2)cc1 [Compound 413] | 3.34 |  |
| CON(C)Cc1ccc2nc(-c3ccc(-c4nc5ccc(CNCCN(C)C)cc5[nH]4)cc3)[nH]c2c1 [Compound 62] |  | > 200 |
| Nc1ccc2[nH]c(-c3ccc(-c4nc5cc(NC6=NCCN6)ccc5[nH]4)cc3)nc2c1 [Compound 24, 2-(4-(5-amino-1H-benzo[d]imidazol-2-yl)phenyl)-N-(4,5-dihydro-1H-imidazol-2-yl)-1H-benzo[d]imidazol-5-amine] |  | 35 |
| CN(C)Cc1cccc(Oc2ccc3nc(-c4ccc(-c5nc6ccc(Oc7cccc(CN(C)C)c7)cc6[nH]5)cc4)[nH]c3c2)c1 [Compound 243] | > 200 |  |
| CN(C)CCNC(=O)c1ccc2nc(-c3ccc(-c4nc5ccc(C(=O)NCCN(C)C)cc5[nH]4)c(Br)c3)[nH]c2c1 [Compound 78] |  | > 200 |
| CN(C)CCNC(=O)COc1ccc2nc(-c3ccc(-c4nc5ccc(OCC(=O)NCCN(C)C)cc5[nH]4)cc3)[nH]c2c1 [Compound 284, 2,2′-((1,4-phenylenebis(1H-benzo[d]imidazole-2,6-diyl))bis(oxy))bis(N-(2-(dimethylamino)ethyl)acetamide)] | 24.1 |  |
| c1cc2nc(-c3ccc(-c4nc5ccc(C6=NCCN6)cc5[nH]4)cc3)[nH]c2cc1C1=NCCN1 [Compound 14, 1,4-bis(6-(4,5-dihydro-1H-imidazol-2-yl)-1H-benzo[d]imidazol-2-yl)benzene] |  | 11 |
| CN1C2CCC1CC(NC(=O)c1ccc(-c3nc4cc(-c5ccc6[nH]c(-c7ccc(C(=O)NC8CC9CCC(C8)N9C)cc7)nc6c5)ccc4[nH]3)cc1)C2 (centres unmarked) [Compound 341] | 5.32 |  |
| CN(C)C/C=C/COc1ccc2nc(-c3ccc(-c4nc5ccc(OC/C=C/CN(C)C)cc5[nH]4)cc3)[nH]c2c1 [Compound 233, (2E,2′E)-4,4′-((2,2′-(1,4-phenylene)bis(1H-benzo[d]imidazole-6,2-diyl))bis(oxy))bis(N,N-dimethylbut-2-en-1-amine)] | 39.5 |  |
| CN1CCN(CCNC(=O)c2ccc(-c3nc4cc(-c5ccc6[nH]c(-c7ccc(C(=O)O)cc7)nc6c5)ccc4[nH]3)cc2)CC1 [Compound 343] | 73.2 |  |
| Cn1c(-c2ccc(-c3nc4cc(N)ccc4n3C)cc2)nc2cc(N)ccc21 [Compound 83, 2,2′-(1,4-phenylene)bis(1-methyl-1H-benzo[d]imidazol-5-amine)] |  | > 200 |
| CN(C)CCCNC(=O)c1ccc2nc(-c3ccc(-c4nc5ccc(C(=O)NCCCN(C)C)cc5[nH]4)cc3)[nH]c2c1 [Compound 36, 2,2′-(1,4-phenylene)bis(N-(3-(dimethylamino)propyl)-1H-benzo[d]imidazole-6-carboxamide)] |  | 7.7 |

| Compound | IC50 (Table M) [µM] | IC50 (Table L) [µM] |
| --- | --- | --- |
| CN(C)CCCOc1ccc2c(c1)nc(-c1ccc(-c3nc4ccc(OCCCN(C)C)cc4n3C)cc1)n2C [Compound 311] | > 200 |  |
| c1cnc(Nc2ccc3nc(-c4ccc(-c5nc6ccc(Nc7ncccn7)cc6[nH]5)cc4)[nH]c3c2)nc1 [Compound 8, 2,2′-(1,4-phenylene)bis(N-(pyrimidin-2-yl)-1H-benzo[d]imidazol-5-amine)] |  | 150 |
| N#Cc1cccc(-c2nc3cc(-c4ccc5[nH]c(-c6cccc(C#N)c6)nc5c4)ccc3[nH]2)c1 [Compound 120] |  | > 200 |
| CC(CCCNC(=O)c1ccc(-c2nc3ccc(-c4ccc5nc(-c6ccc(C(=O)NCCN(C)C)cc6)[nH]c5c4)cc3[nH]2)cc1)CNC(=O)c1ccc(-c2nc3ccc(-c4ccc5nc(-c6ccc(C(=O)NCCN(C)C)cc6)[nH]c5c4)cc3[nH]2)cc1 (centres unmarked) [Compound 426] | 7.04 |  |
| CN(C)CC(CN(C)C)Oc1ccc(-c2nc3cc(-c4ccc5[nH]c(-c6ccc(O)cc6)nc5c4)ccc3[nH]2)cc1 [Compound 370] | 82.3 |  |
| C[C@@H](NC(=O)CNCCNC(=O)c1ccc(-c2nc3cc(-c4ccc5[nH]c(-c6ccc(OCCCN(C)C)cc6)nc5c4)ccc3[nH]2)cc1)C(=O)N[C@H](C)C(=O)N[C@H](C)C(=O)N[C@H](C)C(=O)N(CCNC(=O)c1ccc(-c2nc3cc(-c4ccc5[nH]c(-c6ccc(OCCCN(C)C)cc6)nc5c4)ccc3[nH]2)cc1)CC(N)=O [Compound 448] | 3.5 |  |
| CN(C)CCNC(=O)c1ccc(-c2nc3cc(-c4ccc5[nH]c(-c6ccc(C(=O)NCCOCCOCCOCCOCCN=[N+]=[N-])cc6)nc5c4)ccc3[nH]2)cc1 [Compound 397] | 12.2 |  |
| N=C(N)Nc1ccc(-c2nc3cc(-c4ccc5[nH]c(-c6ccc(N)cc6)nc5c4)ccc3[nH]2)cc1 [Compound 167] |  | 54.4 |
| c1ccc(Nc2ccc3nc(-c4ccc(-c5nc6ccc(Nc7ccccn7)cc6[nH]5)cc4)[nH]c3c2)nc1 [Compound 22, 2,2′-(1,4-phenylene)bis(N-(pyridin-2-yl)-1H-benzo[d]imidazol-5-amine)] |  | 169 |
| CN(C)CCSCCOc1ccc2nc(-c3ccc(-c4nc5ccc(OCCSCCN(C)C)cc5[nH]4)cc3)[nH]c2c1 [Compound 210] | 33.3 |  |
| c1cc2nc(-c3ccc(-c4nc5ccc(NC6=NCCN6C6=NCCN6)cc5[nH]4)cc3)[nH]c2cc1NC1=NCCN1 [Compound 76] |  | 14.5 |
| CN(C)CCNC(=O)c1ccc(-c2nc3cc(-c4ccc5[nH]c(-c6ccc(C(=O)N(C)CCCN(C)C(=O)c7ccc(-c8nc9cc(-c%10ccc%11[nH]c(-c%12ccc(C(=O)NCCN(C)C)cc%12)nc%11c%10)ccc9[nH]8)cc7)cc6)nc5c4)ccc3[nH]2)cc1 [Compound 409] | 50.6 |  |
| CCCOc1cc(-c2nc3cc(OCCCN(C)C)ccc3[nH]2)c(OCCC)cc1-c1nc2cc(OCCCN(C)C)ccc2[nH]1 [Compound 332] | 27.2 |  |
| CN(C)CCCOc1cc2[nH]c(-c3cc(F)c(-c4nc5cc(F)c(OCCCN(C)C)cc5[nH]4)cc3F)nc2cc1F [Compound 331] | 3.11 |  |
| Cc1cc(-c2nc3cc(-c4ccc5[nH]c(-c6cc(C)c(OCCCN(C)C)c(C)c6)nc5c4)ccc3[nH]2)cc(C)c1OCCCN(C)C [Compound 360] | 21.2 |  |
| CN(C)CCCOc1ccc2nc(-c3ccc(-c4nc5ccc(OCCCN(C)C)cc5[nH]4)c(OCCN(C)C)c3)[nH]c2c1 [Compound 263, 3,3′-((2,2′-(2-(2-(dimethylamino)ethoxy)-1,4-phenylene)bis(1H-benzo[d]imidazole-6,2-diyl))bis(oxy))bis(N,N-dimethylpropan-1-amine)] | 45.6 |  |
